In patent US11034650B2, “Compounds useful for treating a Mannheimia haemolytica or Histophilus somni infection” (Intervet Inc., priority 2016, dated 2021):
Values after ≈ are worked out from the molar mass of the structure shown.

How the values were obtained:
Type in all cases: cell-based
[1] = tested on: Pasteurella multocida PM 10775 (080130003051, BRD field isolate); experiment: MIC, broth-microdilution (CLSI VET01-A4), strain PM 10775; conditions: Pasteurella multocida strain PM 10775, broth-microdilution; unit assumed
Procedure, shortened: (§1)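 Compounds were serially diluted twofold in microdilution trays. Growth was judged by eye, and the MIC was the lowest concentration showing no turbidity. Results were interpreted per CLSI VET01-S3.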

[2] = tested on: Pasteurella multocida PM 12080 (IV102277-0093, BRD field isolate); experiment: MIC, broth-microdilution (CLSI VET01-A4), strain PM 12080; conditions: Pasteurella multocida strain PM 12080, broth-microdilution; unit assumed
Procedure, shortened: as §1

[3] = tested on: Mannheimia haemolytica MH 13093 (XB0472-6014.1, BRD field isolate); experiment: MIC, broth-microdilution (CLSI VET01-A4), strain MH 13093; conditions: Mannheimia haemolytica strain MH 13093, broth-microdilution; unit assumed
Procedure, shortened: as §1

[4] = tested on: Mannheimia haemolytica MH 13065 (XB0446-6003.9, BRD field isolate); experiment: MIC, broth-microdilution (CLSI VET01-A4), strain MH 13065; conditions: Mannheimia haemolytica strain MH 13065, broth-microdilution; unit assumed
Procedure, shortened: as §1

[5] = tested on: Mannheimia haemolytica MH 6374 (ATCC 33396, reference strain); experiment: MIC, broth-microdilution (CLSI VET01-A4), strain MH 6374; conditions: Mannheimia haemolytica strain MH 6374, broth-microdilution; unit assumed
Procedure, shortened: as §1

[6] = tested on: Mannheimia haemolytica MH 12587 (1071, BRD field isolate, macrolide-resistance: erm+, E+); experiment: MIC, broth-microdilution (CLSI VET01-A4), strain MH 12587; conditions: Mannheimia haemolytica strain MH 12587, broth-microdilution; unit assumed
Procedure, shortened: as §1

[7] = tested on: Pasteurella multocida PM 6267 (P 2225 (L386), reference strain, mouse infection strain); experiment: MIC, broth-microdilution (CLSI VET01-A4), strain PM 6267; conditions: Pasteurella multocida strain PM 6267, broth-microdilution; unit assumed
Procedure, shortened: as §1

[8] = tested on: Pasteurella multocida PM 6391 (ATCC 43137, reference strain); experiment: MIC, broth-microdilution (CLSI VET01-A4), strain PM 6391; conditions: Pasteurella multocida strain PM 6391, broth-microdilution; unit assumed
Procedure, shortened: as §1

[9] = tested on: Mannheimia haemolytica MH 10720 (154, BRD field isolate); experiment: MIC, broth-microdilution (CLSI VET01-A4), strain MH 10720; conditions: Mannheimia haemolytica strain MH 10720, broth-microdilution; unit assumed
Procedure, shortened: as §1

[10] = tested on: Mannheimia haemolytica MH 6357 (M7/2, reference strain, cattle infection strain); experiment: MIC, broth-microdilution (CLSI VET01-A4), strain MH 6357; conditions: Mannheimia haemolytica strain MH 6357, broth-microdilution; unit assumed
Procedure, shortened: as §1

MIC PM 10775 [1] [µg/mL]	MIC PM 12080 [2] [µg/mL]	MIC PM 6267 [7] [µg/mL]	MIC PM 6391 [8] [µg/mL]	SMILES	MIC MH 13093 [3] [µg/mL]	MIC MH 13065 [4] [µg/mL]	MIC MH 6374 [5] [µg/mL]	MIC MH 12587 [6] [µg/mL]	MIC MH 10720 [9] [µg/mL]	MIC MH 6357 [10] [µg/mL]
≤ 0.1	0.4 (≈ 0.788 µM)	1.6 (≈ 3.15 µM)	1.6 (≈ 3.15 µM)	CSC(C)(C)C(NC(=O)c1ccc(C#Cc2ccc(CNCc3ccccc3)s2)cc1)C(=O)NO (stereo not drawn) [Compound 304]	3.1 (≈ 6.11 µM)	1.6 (≈ 3.15 µM)	1.6 (≈ 3.15 µM)	1.6 (≈ 3.15 µM)	≤ 0.1	0.8 (≈ 1.58 µM)
≤ 0.1	0.4 (≈ 0.744 µM)	0.8 (≈ 1.49 µM)	0.4 (≈ 0.744 µM)	COc1ccc(CNCc2ccc(C#Cc3ccc(C(=O)N[C@H](C(=O)NO)C(C)(C)SC)cc3)s2)cc1 [Compound 305]	1.6 (≈ 2.98 µM)	0.8 (≈ 1.49 µM)	0.8 (≈ 1.49 µM)	3.1 (≈ 5.77 µM)	0.2 (≈ 0.372 µM)	0.8 (≈ 1.49 µM)
≤ 0.1	0.4 (≈ 0.786 µM)	0.8 (≈ 1.57 µM)	0.4 (≈ 0.786 µM)	CSC(C)(C)[C@H](NC(=O)c1ccc(C#Cc2ccc(CNCc3cccnc3)s2)cc1)C(=O)NO [Compound 306]	0.8 (≈ 1.57 µM)	0.8 (≈ 1.57 µM)	0.8 (≈ 1.57 µM)	3.1 (≈ 6.09 µM)	0.2 (≈ 0.393 µM)	0.8 (≈ 1.57 µM)
≤ 0.1	0.4 (≈ 0.786 µM)	0.8 (≈ 1.57 µM)	0.4 (≈ 0.786 µM)	CSC(C)(C)[C@H](NC(=O)c1ccc(C#Cc2ccc(CNCc3ccccn3)s2)cc1)C(=O)NO [Compound 307]	1.6 (≈ 3.15 µM)	0.8 (≈ 1.57 µM)	0.8 (≈ 1.57 µM)	1.6 (≈ 3.15 µM)	≤ 0.1	0.8 (≈ 1.57 µM)
≤ 0.1	0.4 (≈ 0.804 µM)	0.8 (≈ 1.61 µM)	0.4 (≈ 0.804 µM)	CSC(C)(C)[C@H](NC(=O)c1ccc(C#Cc2ccc(CNCc3ccco3)s2)cc1)C(=O)NO [Compound 308]	1.6 (≈ 3.22 µM)	0.8 (≈ 1.61 µM)	0.8 (≈ 1.61 µM)	1.6 (≈ 3.22 µM)	≤ 0.1	0.8 (≈ 1.61 µM)
≤ 0.1	0.4 (≈ 0.801 µM)	1.6 (≈ 3.2 µM)	0.4 (≈ 0.801 µM)	CSC(C)(C)[C@H](NC(=O)c1ccc(C#Cc2ccc(CNCC(F)(F)F)s2)cc1)C(=O)NO [Compound 309]	1.6 (≈ 3.2 µM)	0.8 (≈ 1.6 µM)	0.8 (≈ 1.6 µM)	1.6 (≈ 3.2 µM)	≤ 0.1	0.8 (≈ 1.6 µM)
0.4 (≈ 0.78 µM)	0.8 (≈ 1.56 µM)	1.6 (≈ 3.12 µM)	0.4 (≈ 0.78 µM)	CSC(C)(C)[C@H](NC(=O)c1ccc(C#Cc2ccc(CNCc3ncc(C)o3)s2)cc1)C(=O)NO [Compound 310]	1.6 (≈ 3.12 µM)	1.6 (≈ 3.12 µM)	0.8 (≈ 1.56 µM)	3.1 (≈ 6.05 µM)	0.4 (≈ 0.78 µM)	1.6 (≈ 3.12 µM)
≤ 0.1	≤ 0.1	0.4 (≈ 0.817 µM)	≤ 0.1	C=CCNCc1ccc(C#Cc2ccc(C(=O)N[C@H](C(=O)NO)C(C)(C)S(C)(=O)=O)cc2)s1 [Compound 312]	0.8 (≈ 1.63 µM)	0.4 (≈ 0.817 µM)	0.4 (≈ 0.817 µM)	0.8 (≈ 1.63 µM)	≤ 0.1	0.4 (≈ 0.817 µM)
≤ 0.1	≤ 0.1	0.4 (≈ 0.77 µM)	≤ 0.1	CC(C)([C@H](NC(=O)c1ccc(C#Cc2ccc(CN3CCOCC3)s2)cc1)C(=O)NO)S(C)(=O)=O [Compound 314]	0.8 (≈ 1.54 µM)	0.4 (≈ 0.77 µM)	1.6 (≈ 3.08 µM)	0.8 (≈ 1.54 µM)	≤ 0.1	0.4 (≈ 0.77 µM)
≤ 0.1	≤ 0.1	0.2 (≈ 0.371 µM)	≤ 0.1	CC(C)([C@H](NC(=O)c1ccc(C#Cc2ccc(CNCc3ccccc3)s2)cc1)C(=O)NO)S(C)(=O)=O [Compound 315]	0.4 (≈ 0.741 µM)	≤ 0.1	≤ 0.1	0.4 (≈ 0.741 µM)	≤ 0.1	≤ 0.1

The next lines start with the compound.

SMILES	MIC PM 10775 [1] [µg/mL]	MIC PM 12080 [2] [µg/mL]	MIC PM 6267 [7] [µg/mL]	MIC PM 6391 [8] [µg/mL]	MIC MH 13093 [3] [µg/mL]	MIC MH 13065 [4] [µg/mL]	MIC MH 6374 [5] [µg/mL]	MIC MH 12587 [6] [µg/mL]	MIC MH 10720 [9] [µg/mL]	MIC MH 6357 [10] [µg/mL]
CC(C)(O)[C@H](NC(=O)c1ccc(C#Cc2ccc(CNCc3cccnc3)s2)cc1)C(=O)NO [Compound 296]	≤ 0.1	≤ 0.1	0.8 (≈ 1.67 µM)	≤ 0.1	0.4 (≈ 0.836 µM)	≤ 0.1	0.2 (≈ 0.418 µM)	0.4 (≈ 0.836 µM)	≤ 0.1	≤ 0.1
CC(C)(O)[C@H](NC(=O)c1ccc(C#Cc2ccc(CNCc3ccccn3)s2)cc1)C(=O)NO [Compound 297]	≤ 0.1	0.2 (≈ 0.418 µM)	0.4 (≈ 0.836 µM)	≤ 0.1	0.4 (≈ 0.836 µM)	0.4 (≈ 0.836 µM)	0.4 (≈ 0.836 µM)	0.8 (≈ 1.67 µM)	≤ 0.1	0.2 (≈ 0.418 µM)
CC(C)(O)[C@H](NC(=O)c1ccc(C#Cc2ccc(CNCc3ccco3)s2)cc1)C(=O)NO [Compound 298]	≤ 0.1	≤ 0.1	0.4 (≈ 0.856 µM)	≤ 0.1	0.4 (≈ 0.856 µM)	0.2 (≈ 0.428 µM)	0.2 (≈ 0.428 µM)	0.4 (≈ 0.856 µM)	≤ 0.1	≤ 0.1
Cc1cnc(CNCc2ccc(C#Cc3ccc(C(=O)N[C@H](C(=O)NO)C(C)(C)O)cc3)s2)o1 [Compound 299]	≤ 0.1	0.4 (≈ 0.829 µM)	0.4 (≈ 0.829 µM)	≤ 0.1	0.4 (≈ 0.829 µM)	0.4 (≈ 0.829 µM)	0.4 (≈ 0.829 µM)	0.8 (≈ 1.66 µM)	≤ 0.1	0.2 (≈ 0.414 µM)
CSC(C)(C)[C@H](NC(=O)c1ccc(C#Cc2ccc(CNC3CC3)s2)cc1)C(=O)NO [Compound 300]	≤ 0.1	0.4 (≈ 0.874 µM)	0.4 (≈ 0.874 µM)	≤ 0.1	0.8 (≈ 1.75 µM)	0.4 (≈ 0.874 µM)	0.8 (≈ 1.75 µM)	0.8 (≈ 1.75 µM)	≤ 0.1	0.4 (≈ 0.874 µM)
C=CCNCc1ccc(C#Cc2ccc(C(=O)N[C@H](C(=O)NO)C(C)(C)SC)cc2)s1 [Compound 301]	≤ 0.1	0.4 (≈ 0.874 µM)	0.4 (≈ 0.874 µM)	1.6 (≈ 3.5 µM)	0.8 (≈ 1.75 µM)	0.4 (≈ 0.874 µM)	0.8 (≈ 1.75 µM)	0.8 (≈ 1.75 µM)	≤ 0.1	0.4 (≈ 0.874 µM)
COCCNCc1ccc(C#Cc2ccc(C(=O)N[C@H](C(=O)NO)C(C)(C)SC)cc2)s1 [Compound 302]	≤ 0.1	0.4 (≈ 0.841 µM)	0.8 (≈ 1.68 µM)	0.8 (≈ 1.68 µM)	0.8 (≈ 1.68 µM)	0.8 (≈ 1.68 µM)	0.8 (≈ 1.68 µM)	1.6 (≈ 3.36 µM)	≤ 0.1	0.4 (≈ 0.841 µM)
CSC(C)(C)[C@H](NC(=O)c1ccc(C#Cc2ccc(CN3CCOCC3)s2)cc1)C(=O)NO [Compound 303]	≤ 0.1	0.4 (≈ 0.82 µM)	1.6 (≈ 3.28 µM)	0.4 (≈ 0.82 µM)	1.6 (≈ 3.28 µM)	1.6 (≈ 3.28 µM)	1.6 (≈ 3.28 µM)	1.6 (≈ 3.28 µM)	0.4 (≈ 0.82 µM)	0.2 (≈ 0.41 µM)
